The source of these data is patent publication US4690939A, “Anti-hypertensive agents” (University of Miami, priority 1979, dated 1987).

Non-standard residues stand in square brackets, D forms with d. Residues, ends and D or L forms follow the SMILES beside them. No end group written: not given here. pGlu = O=C1CC[C@@H](C(=O)O)N1

One experiment concerns the target T1, human urinary ACE (Homo sapiens, UniProt P12821).
T1 construct: from tissue; host or cells: human urine
The experiment is described as follows: ACE activity assay (inhibition of benzoyl-GlyHisLeu hydrolysis). It is filed as biochemical. As to conditions: substrate approximately 1/2 Km (Example 1 assay), read-out: I50. The protocol:
These factors include the source of enzyme, its purity, the substrate used and its concentration, and the composition of the assay buffer.
ACE activity assay. […] To initiate the assay, 40 μl of enzyme and 10 μl of water or inhibitor dissolved in water were preincubated for five minutes at 37° C. […] To terminate the reaction, 1 ml of 0.1 M HCl was added, following which 1 ml of ethyl acetate was added. The mixture was agitated on a rotary mixer and centrifuged briefly to separate the phases.
For determination of I50 values, enzyme activity in the presence of inhibitor at a series of different concentrations was compared to activity in the absence of inhibitor.

The test system of the next experiment is ACE. Particulars: competitive substrates; cited from earlier work.

T1 sequence (P12821 30-1232 limits assumed): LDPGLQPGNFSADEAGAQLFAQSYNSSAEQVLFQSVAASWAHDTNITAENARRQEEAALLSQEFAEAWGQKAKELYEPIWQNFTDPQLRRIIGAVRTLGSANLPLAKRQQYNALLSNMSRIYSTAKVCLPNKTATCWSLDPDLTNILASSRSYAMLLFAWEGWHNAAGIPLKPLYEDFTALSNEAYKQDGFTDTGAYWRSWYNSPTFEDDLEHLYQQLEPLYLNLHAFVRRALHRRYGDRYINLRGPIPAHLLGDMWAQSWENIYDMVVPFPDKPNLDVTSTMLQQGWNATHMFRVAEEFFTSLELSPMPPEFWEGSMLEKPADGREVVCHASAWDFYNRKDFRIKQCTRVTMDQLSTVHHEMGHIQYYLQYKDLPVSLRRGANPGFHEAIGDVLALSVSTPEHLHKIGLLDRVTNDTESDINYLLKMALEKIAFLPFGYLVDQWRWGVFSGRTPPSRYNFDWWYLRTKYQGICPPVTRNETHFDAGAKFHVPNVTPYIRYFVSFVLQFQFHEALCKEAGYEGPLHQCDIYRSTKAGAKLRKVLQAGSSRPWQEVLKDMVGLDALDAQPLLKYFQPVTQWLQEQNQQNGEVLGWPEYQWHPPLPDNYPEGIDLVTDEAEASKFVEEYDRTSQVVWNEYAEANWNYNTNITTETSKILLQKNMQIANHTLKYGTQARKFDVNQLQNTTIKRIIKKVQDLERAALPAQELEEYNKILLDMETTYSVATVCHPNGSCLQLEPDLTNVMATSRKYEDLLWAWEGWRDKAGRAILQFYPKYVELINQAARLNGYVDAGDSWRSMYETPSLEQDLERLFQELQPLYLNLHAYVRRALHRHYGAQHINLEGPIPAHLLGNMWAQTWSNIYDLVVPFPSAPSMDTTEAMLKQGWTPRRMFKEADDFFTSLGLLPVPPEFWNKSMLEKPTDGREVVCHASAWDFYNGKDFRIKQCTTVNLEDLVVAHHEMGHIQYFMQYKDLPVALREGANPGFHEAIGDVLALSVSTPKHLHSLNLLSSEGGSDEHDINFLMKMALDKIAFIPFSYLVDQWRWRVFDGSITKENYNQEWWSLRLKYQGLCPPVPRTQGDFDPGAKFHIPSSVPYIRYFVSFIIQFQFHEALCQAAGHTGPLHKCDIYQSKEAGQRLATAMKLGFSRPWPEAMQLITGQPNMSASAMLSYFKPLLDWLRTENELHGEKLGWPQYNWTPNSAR

In the case of `CC(=O)N[C@@H](Cc1ccccc1)C(=O)SC[C@@H](C)C(=O)N1CCC[C@H]1C(=O)O` [N^α -[3-(N^α -acetyl-L-phenylalanylthio)-2-D-methylpropanoyl]-L-proline], the IC50 on human urinary ACE amounted to 26 nM.

As to `C[C@H](NC(=O)[C@H](Cc1c[nH]c2ccccc12)NC(=O)[C@H](CCCCN)NC(=O)[C@@H]1CCC(=O)N1)C(=O)N1CCC[C@H]1C(=O)O` [BPP5a] ([pGlu]KWAP-OH), in the experiment on ACE, the “Km relative to angiotensin I” value is “lower Km than angiotensin I”. Consider RPPGFSPFR [bradykinin], for which, in the experiment with ACE, the “Km relative to angiotensin I” value was “lower Km than angiotensin I”.
